Test results reported in patent publication US20210386705A1, “APPLICATION OF CHIGLITAZAR AND RELATED COMPOUNDS THEREOF” (SHENZHEN CHIPSCREEN BIOSCIENCES CO., LTD., priority 2018, published 2021).
Several values for one entry are separate records, joined by “and”; a condition that tells them apart may be missing. Identical values can stand only once.

Legend:
Type in all cases: cell-based, human
[1] = system: α-smooth muscle actin (α-SMA); assay: TGF-β1-activated hepatic stellate cells, α-SMA gene expression (qPCR); conditions: TGF-β1 stimulation, 24 hours; FIG. 4
Experimental: Human primary hepatic stellate cells were seeded into 6-well plates with complete growth media (Stellate Cell Medium) for 24 hours, and then the culture media were replaced by fresh media (free of serum and growth factors) containing TGF-β1 and the compound to be tested (sodium chiglitazar) or the reference compound PPARγ/α dual agonist pioglitazone or PPARα/δ dual agonist GFT505 (both purchased from Selleck), and the cells were cultured for 24 hours. The total RNAs of the samples were extracted, and reverse transcription reaction was performed. Thereafter, a conventional PCR amplification kit (FastStart Universal SYBR@ Green Master (ROX), Roche) was used for further detection, where the PCR primers were designed with reference to the NCBI standard mRNA sequence of the target genes (Table 2). PCR reaction and detection were carried out on the ABI StepOnePlus real-time quantitative PCR instrument. By calculating the relative amount of transcripts was calculate by “Delta-Delta CT method” (Livak et al. Methods 2001), and using ACTB as the housekeeping gene for normalization and the average data of untreated human hepatic stellate cells as a reference control, the relative change folds of gene expression were obtained (FIG. 4).

THP-1 cells = assay: Inflammatory factor gene expression (MCP-1, TNFα) in PMA-activated THP-1 cells (qPCR); conditions: 6 hours, FIG. 5
Experimental: Human acute monocytic leukemia mononuclear cell line (THP-1) cells were activated by a certain concentration of phorbol esters (Phorbol-12-myristate-13-acetate, PMA) and differentiated into macrophages. Through this cell model, the activating effects of sodium chiglitazar and other compounds on the expression of THP-1 related inflammatory factors were detected.
THP-1 cells were seeded into 6-well plates with complete growth media for 24 hours, and then the culture media were replaced by fresh media containing PMA and the compound to be tested (sodium chiglitazar) or the reference compound GFT505 (PPARα/δ dual agonist), and the cells were cultured for 6 hours. The total RNAs of the samples were extracted, and cDNA templates were synthesized by reverse transcription reaction (Transcriptor First Strand cDNA Synthesis Kit, Roche). Thereafter, a conventional PCR amplification kit (FastStart Universal SYBR@ Green Master (ROX), Roche) was used for semi-quantitative gene expression detection on the ABI StepOnePlus real-time quantitative PCR instrument.
The relative expression change of the target genes was obtained by using the internal reference β-actin gene (ACTB) as the standard for normalization, compared with the untreated cell samples, and the relative expression change folds were calculated (FIG. 5).

[2] = system: monocytic cell line THP-1; assay: MCP-1-induced chemotaxis of THP-1 cells (Transwell); conditions: MCP-1 10 ng/mL, compound 3 μmol/L; for Cell concentration in lower chamber, Mean value / Cell concentration in lower chamber, single replicates: 24 hours pretreatment, 4 hours migration; for Migration rate: solvent control + MCP-1 = 100
Description: In an in vitro model, migration of the monocytic cell line THP-1 induced by a certain concentration of chemokines (such as monocyte chemotactic protein 1, MCP-1), and accordingly such in vivo process was mimicked. Transwell technology, according to the manufacturer's instructions from Corning Inc., is considered that Traswell is a kind of a polycarbonate membrane filter as well as a permeable holder. The polycarbonate membrane divides a culture chamber into upper and lower ones, where the components of the culture medium in the lower chamber can affect the growth, differentiation and movement of the cells in upper chamber. Finally, the cell migration ability can be reflected by staining and counting the cells in the lower chamber.
When cultured to the log phase stage, THP-1 cells were resuspended, adjusted the concentration, and seeded in 24-well plates, followed by being pretreated with the culture media containing the compound to be tested (sodium chiglitazar) or the reference compound GFT505, pioglitazone, or PPARγ single agonist rosiglitazone (all purchased from Selleck) for 24 hours. Transwells were used according to the manufacturer's instructions. The culture media containing chemokine MCP-1 were added to the lower chamber (i.e., the bottom of the 24-well plates), and the cell suspension was added to the upper chamber and cultured for 4 hours. Later, the cells cultured on the “ceiling” surface of the polycarbonate membrane were fixed and stained with crystal violet solution (FIG. 6), and then the number of cells in the lower chamber was counted (Table 3).

Compound	Effect on expression of α-smooth muscle actin [1]	Inhibition of phorbol esters-mediated activation of monocyte and related gene expression (THP-1 cells)	Cell concentration in lower chamber, Mean value [2]	Cell concentration in lower chamber, single replicates [2]	Migration rate [2]
CSc1ccc(C(=O)/C=C/c2cc(C)c(OC(C)(C)C(=O)O)c(C)c2)cc1 [GFT505]	a certain inhibitory effect	significantly inhibit	28175 cells/ml	28443 cells/ml and 28511 cells/ml and 27572 cells/ml	102.55%
CCc1ccc(CCOc2ccc(CC3SC(=O)NC3=O)cc2)nc1 (stereo not drawn) [pioglitazone]	no effect	–	17514 cells/ml	17529 cells/ml and 17416 cells/ml and 17597 cells/ml	61.80%
